Experimental findings from patent publication US8431522B2, “Methods of inhibiting tumor cell proliferation” (The Board of Trustees of the University of Illinois, priority 2003, dated 2013) are described below.

Entries after “also recorded” stand apart in the source; their conditions may differ. Non-standard residues stand in square brackets, D forms with d. No end group written: not given here.

Assay [1] has as its system GFP-FoxM1B fusion protein. In words: Localization of GFP-FoxM1B fusion protein in transfected U2OS cells (fluorescence). It counts as cell-based, human. As to conditions: for targeting of GFP-FoxM1B protein to the nucleolus: cotransfection of expression vector. An excerpt: FIGS. 7A-H show nuclear localization of GFP-FoxM1B fusion protein following treatment with either pharmacological kinase inhibitors or dominant negative kinases. U20S cells were transiently transfected with CMV GFP-FoxM1B with the indicated pharmacological kinase inhibitors (B-D) or dominant-negative kinase expression vectors (E-H). Cells in panel (A) were untreated.
U2OS cells were transiently transfected in 2 well chamber slides (Nunc) with CMV GFP-FoxM1B expression constructs in the presence or absence of either CMV WT T7-p19^ARF, CMV HA-p19^ARF, or CMV expression constructs containing either N-terminal mutant T7-p19^ARF proteins (Δ1-14, Δ15-25, or Δ26-37) or V5-TAT-p19^ARF proteins (26-44; SEQ ID NO: 11, or 26-55; SEQ ID NO: 12). U2OS cells were transiently transfected with CMV EGFP expression vector containing the TAT-p19^ARF proteins (26-44; SEQ ID NO: 11, or 26-55; SEQ ID NO: 12). Forty-eight hours post transfection, cells were fixed in 4% Para-formaldehyde for 20 minutes at room temperature. GFP fluorescence or immuno-fluorescence with anti-HA antibody following TRITC conjugated secondary antibody was detected using a Zeiss microscope. U2OS cells were treated with 12 μM of the arrrarrKFVRSRRPRTASCALAFVN (SEQ ID NO: 10) peptide for 24 hours and then analyzed for TRITC fluorescence as described above.

Another assay deals with T1, FoxM1B protein (Homo sapiens, UniProt Q08050).
T1 construct: expressed in transfected cells; host or cells: U2OS (human osteosarcoma) cells, transient transfection
T1 sequence (Q08050 1-748 isoform Q08050-2): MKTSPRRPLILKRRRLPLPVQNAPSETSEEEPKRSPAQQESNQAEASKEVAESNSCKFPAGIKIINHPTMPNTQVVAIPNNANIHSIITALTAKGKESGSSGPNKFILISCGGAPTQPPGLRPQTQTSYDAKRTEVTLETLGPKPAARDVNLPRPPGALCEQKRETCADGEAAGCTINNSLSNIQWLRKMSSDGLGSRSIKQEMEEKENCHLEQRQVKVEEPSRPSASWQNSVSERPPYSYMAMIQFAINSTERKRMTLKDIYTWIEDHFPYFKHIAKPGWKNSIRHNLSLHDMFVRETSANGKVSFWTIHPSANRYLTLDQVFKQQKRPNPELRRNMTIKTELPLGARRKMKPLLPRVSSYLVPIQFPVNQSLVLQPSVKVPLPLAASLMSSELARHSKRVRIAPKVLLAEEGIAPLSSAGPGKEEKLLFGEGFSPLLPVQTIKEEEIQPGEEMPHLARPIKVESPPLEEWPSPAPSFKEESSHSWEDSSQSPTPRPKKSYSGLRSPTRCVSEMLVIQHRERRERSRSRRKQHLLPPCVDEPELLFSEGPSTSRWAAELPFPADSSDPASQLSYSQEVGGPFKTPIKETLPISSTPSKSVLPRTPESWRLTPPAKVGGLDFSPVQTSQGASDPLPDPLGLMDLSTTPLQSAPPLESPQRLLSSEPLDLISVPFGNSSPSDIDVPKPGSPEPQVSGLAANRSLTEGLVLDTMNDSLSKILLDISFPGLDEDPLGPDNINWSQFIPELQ
The assay is described as follows: Co-immunoprecipitation of V5-tagged p19ARF sequences with GFP-FoxM1B from transfected U2OS extracts. It counts as binding. To be noted: V5 antibody IP, GFP Western blot. As for the experimental part: The p19 protein was immunoprecipitated from transfected protein extracts with V5 epitope antibody followed by Western blot analysis with GFP monoclonal antibody.
To identify p19 protein sequences that are sufficient for association with FoxM1B protein, Co-IP assays were performed with protein extracts prepared from U2OS cells that were transiently transfected with CMV GFP-FoxM1B expression plasmid and the CMV expression vector containing the V5 epitope tagged p19^ARF 26-44 or p19^ARF 26-55 sequences. At the amino terminus of either the p19^ARF sequences 26 to 44 or 26 to 55, we placed the protein transduction/nuclear localization domain ([…]; SEQ ID NO: 13) from the HIV-TAT protein (Becker-Hapak et al., 2001, Methods 24:247-256). Protein extracts were incubated with the V5 epitope tag antibody to IP the p19 protein followed by Western blot analysis with GFP monoclonal antibody to detect the GFP-FoxM1B fusion protein.
For orientation: Immunoblotting shows a protein as a band on a membrane.

For assay [2], the system named is FoxM1B transcriptional activity. In words: FoxM1B transcription assay with 6X FoxM1B TATA-luciferase reporter in transfected U2OS cells. It counts as cell-based, human. As for the experimental part:
U20S TetR cells were transiently co-transfected with the reporter 6X-FoxM1B-TATA-Luciferase and CMV-TO-FoxM1B (500 ng) alone or with increasing amounts of either CMV-DN-Cdk1, Cdk1 pharmacological inhibitor Alsterpaullone or CMV-Myt1. Results are expressed as the percent activity with respect to wild-type FoxM1B using four separate transfection experiments were performed in triplicate to calculate ±SD.
U20S TetR cells were transiently co-transfected with the reporter 6X-FoxM1B-TATA-Luciferase and CMV-TO-FoxM1B (500 ng) with CMV-DN-p90Rsk, CMV-DN-Ras or DN-AKT or with 50 μM of either U0126 or Ly294002 alone or together or with 25 μM of Akt inhibitor. Four separate transfection experiments were performed in triplicate to calculate ±SD.
A 6X FoxM1B/FoxA TATA-Luciferase utilized 6 copies of the FoxM1B/FoxA binding site (TTTGTTTGTTTG; SEQ ID NO: 6) from the cdx-2 promoter region driving expression of the CMV-TATA box luciferase reporter gene as described previously (Rausa et al., 2003, Mol. Cell. Biol. 23:437-449; Samadani et al., 1996, Mol. Cell. Biol. 16:6273-6284; Ye et al., 1997, Mol. Cell Biol. 17:1626-1641).
Inhibiting Cdk1 activity with either dominant negative (DN) Cdk1 or a pharmacologically active concentration of Alsterpaullone (1 μM) caused an 80% to 90% reduction in FoxM1B transcriptional activity (FIG. 6C). […] Consistent with these findings, stimulation of Cdk1 activity by co-transfection of either CMV Cdc25B or Cdc25C phosphatases enhanced FoxM1B transcriptional activity by 3.4-fold and 1.7-fold, respectfully (FIGS. 6B and 6D). […]
Human osteosarcoma U2OS cells were maintained in DMEM supplemented with 10% fetal calf serum, 1× Pen/Strep and 1× L-Glutamine (Gibco). […] Luciferase activity was determined as percent of wild type FoxM1B activity following normalization to Renilla activity. Experiments were performed at least four times in triplicate and mean±SD determined. […]
In general terms: Reporter assays use an easily measured gene product as a stand-in for the process of interest.

The test system of a further assay is parental U2OS cells. In words: Soft agar colony formation, parental (wild type) U2OS cells. It counts as cell-based, human. To be noted: 12 μM peptide, two weeks. The procedure:
The T-REx™-U2OS cells were purchased from Invitrogen Life Technologies (Catalog No. R712-07). The T-REx™-U2OS cells express the Tet repressor from pCEP4/tetR that was episomally maintained in tissue culture medium containing 10% fetal calf serum and drug selection with 50 μg/ml of Hygromycin B. Tetracycline regulation in the T-REx System was based on the binding of tetracycline to the TET repressor and de-repressing of the CMV-TETO promoter controlling expression of the gene of interest (Yao et al., 1998, Hum Gene Ther 9:1939-1950). The pCDNA4-TO GFP-FoxM1B expression plasmid provided in the T-REx™ system was generated as described previously (Major et al., 2004, Mol. Cell. Biol. 24:2649-2661) and transfected T-REx™-U2OS cells with linearized pCDNA4-TO GFP-Foxm1b expression plasmid to select clonal Doxycycline inducible GFP-Foxm1b U2OS cell lines. CMV-TETO GFP-FoxM1B U2OS clones were isolated by selection for three weeks with tissue culture medium containing 50 μg/ml of Hygromycin B and 250 μg/ml of Zeocin. […] Wild type U2OS cells or CMV-TETO GFP-Foxm1b U2OS clone C3 cells were grown in medium with or without 1 μg/ml of Doxycycline for 2 days prior to either adding the (D-Arg)9-p19^ARF 26-44 peptide or left untreated. […] U2OS cell colonies that were larger than 1 mm in size were scored after two weeks of growth on the soft agar.

For the next assay, the system named is U2OS clone C3 cells. In words: Soft agar colony formation, Doxycycline induced CMV-TETO GFP-FoxM1B U2OS clone C3 cells. It counts as cell-based, human. To be noted: 12 μM peptide, 1 μg/ml Doxycycline, two weeks. The procedure:
The T-REx™-U2OS cells were purchased from Invitrogen Life Technologies (Catalog No. R712-07). The T-REx™-U2OS cells express the Tet repressor from pCEP4/tetR that was episomally maintained in tissue culture medium containing 10% fetal calf serum and drug selection with 50 μg/ml of Hygromycin B. Tetracycline regulation in the T-REx System was based on the binding of tetracycline to the TET repressor and de-repressing of the CMV-TETO promoter controlling expression of the gene of interest (Yao et al., 1998, Hum Gene Ther 9:1939-1950). […] U2OS cell colonies that were larger than 1 mm in size were scored after two weeks of growth on the soft agar.
In addition, the tetracycline (TET) regulated T-REx™ System described above was used to conditionally express the GFP-FoxM1B protein in U2OS cells to determine whether conditional overexpression of FoxM1B protein could enhance anchorage-independent growth of U2OS cells. […] The U2OS clone C3 cell line was selected to examine whether doxycycline induced FoxM1B-GFP expression enhanced anchorage-independent growth as assessed by propagation for two weeks on soft agar (Conzen et al., 2000, Mol Cell Biol 20:6008-6018).

The next assay deals with U2OS cells. The assay is described as follows: Cellular uptake and localization of TRITC-tagged peptide in U2OS cells. The format is cell-based, human. As to conditions: 12 μM, three days.
Where [3] appears, read: cotransfection of CMV expression vector, U2OS cells.

As for `O=C1Cc2c([nH]c3ccc([N+](=O)[O-])cc23)-c2ccccc2N1` [Alsterpaullone, reference compound], in assay [1] (Alsterpaullone 1 μM), the “nuclear localization of transfected CMV GFP-FoxM1B protein” value was “Neither DN-Cdk1 nor Alsterpaullone (1 μM) altered nuclear localization”.
As for “KFVRSRRPRTASCALAFVN (Mus Musculus) [V5-TAT-p19^ARF 26-44]”, the “association with FoxM1B protein (Co-IP)” value with FoxM1B protein is “sufficient to associate with the FoxM1B protein”. Further, the FoxM1B transcriptional activity result in assay [2] (setting [3]) is reported as “able to significantly decrease FoxM1B transcriptional activity”. Besides, the “targeting of GFP-FoxM1B protein to the nucleolus” value in assay [1] was “targeted to the nucleolus”.
Take “KFVRSRRPRTASCALAFVNMLLRLERILRR (listed as Mus musculus) [V5-TAT-p19^ARF 26-55]”: the FoxM1B transcriptional activity entry in assay [2] (setting [3]) is given as “able to significantly decrease FoxM1B transcriptional activity”. Further, the “targeting of GFP-FoxM1B protein to the nucleolus” value in assay [1] was “targeted to the nucleolus”.
Turning to “rrrrrrrrrKFVRSRRPRTASCALAFVN ([dR][dR][dR][dR][dR][dR][dR][dR][dR]KFVRSRRPRTASCALAFVN; listed as Mus musculus) [(D-Arg)9-p19^ARF 26-44 peptide, p19ARF 26-44 peptide containing nine D-Arg residues at the N-terminus]”, the “colony formation on soft agar” value with parental U2OS cells is listed as “significantly diminished the ability of the parental U2OS cells to form colonies on soft agar; also recorded: significantly inhibited colony formation of U2OS cells on soft agar”. In addition, in assay [2] (12 μM peptide, 24 hours, transfected U2OS cells), the FoxM1B transcriptional activity entry was “significant reduction in FoxM1B transcriptional activity; also recorded: effective inhibitor of FoxM1B transcriptional activity”. In the assay with U2OS clone C3 cells, the “FoxM1B induced colony formation on soft agar” value is “significantly diminished the ability of induced GFP-FoxM1B to stimulate colony formation”. Besides, in the assay with U2OS cells, the “transduction into cells and localization of peptide fluorescence” value is “efficiently transduced into all of the cells and that its fluorescence localized to the nucleolus; also recorded: transduced into the cell and was localized to the nucleolus”.
